In patent US20170066741A1, “2-Amino-3,5,5-Trifluoro-3,4,5,6-Tetrahydropyridines as BACE1 Inhibitors for Treatment of Alzheimer's Disease” (H. Lundbeck A/S, priority 2014, published 2017):

Target: T1, BACE1 enzyme (Homo sapiens, UniProt P56817)
T1 construct: purchased Life Technologies P2985
Experiment: BACE1 efficacy assay (FRET-based, commercial BACE1 kit)
Type: biochemical
Settings: test compound 10 μM
Description: The efficacy assay was performed as a FRET-based assay using a commercially available BACE1 kit (Life Technologies, P2985). 2 μl test compound at 10 μM (final concentration) and 15 μl BACE1 enzyme from the kit (final concentration 3 nM) were preincubated for 15 minutes at room temperature before addition of […] of substrate from the kit (250 nM final concentration) and incubated for additional 90 minutes at room temperature. The assay plate was subsequently read in a Pherastar (Ex540/Em590). […] The efficacy of the test compounds was evaluated at 10 μM (final concentration) and defined as the percent inhibition of the enzyme activity using the equation % inhibition=100%−normalized enzyme activity in percent.

T1 sequence (P56817 46-501): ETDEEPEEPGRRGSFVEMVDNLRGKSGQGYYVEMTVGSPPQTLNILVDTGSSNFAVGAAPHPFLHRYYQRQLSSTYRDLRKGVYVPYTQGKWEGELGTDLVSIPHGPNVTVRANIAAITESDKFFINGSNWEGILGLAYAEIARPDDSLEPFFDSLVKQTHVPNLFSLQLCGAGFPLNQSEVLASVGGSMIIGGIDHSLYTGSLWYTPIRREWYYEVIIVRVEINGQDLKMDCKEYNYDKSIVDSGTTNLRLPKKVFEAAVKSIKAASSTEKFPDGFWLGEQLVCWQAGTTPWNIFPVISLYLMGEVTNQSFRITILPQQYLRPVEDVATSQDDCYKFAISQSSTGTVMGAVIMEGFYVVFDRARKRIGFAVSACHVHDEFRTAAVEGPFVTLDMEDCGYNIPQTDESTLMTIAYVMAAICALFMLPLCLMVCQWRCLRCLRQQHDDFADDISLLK

Row | inhibition at 10 µM | SMILES
1 | 101% | COc1ccc(C(=O)Nc2ccc(F)c([C@@]3(C)N=C(N)[C@@](C)(F)CC3(F)F)c2)nc1 [Compound 17, N-(3-((2R,5S)-6-amino-3,3,5-trifluoro-2,5-dimethyl-2,3,4,5-tetrahydropyridin-2-yl)-4-fluorophenyl)-5-methoxypicolinamide]
2 | 102% | Cc1cc(C#N)cnc1C(=O)Nc1ccc(F)c([C@@]2(C)N=C(N)[C@@](C)(F)CC2(F)F)c1 [Compound 18, N-(3-((2R,5S)-6-amino-3,3,5-trifluoro-2,5-dimethyl-2,3,4,5-tetrahydropyridin-2-yl)-4-fluorophenyl)-5-cyano-3-methylpicolinamide]
3 | 102% | C[C@@]1(F)CC(F)(F)[C@@](C)(c2cc(NC(=O)c3ccn(C(F)F)n3)ccc2F)N=C1N [Compound 23, N-(3-((2R,5R)-6-amino-3,3,5-trifluoro-2,5-dimethyl-2,3,4,5-tetrahydropyridin-2-yl)-4-fluorophenyl)-1-(difluoromethyl)-1H-pyrazole-3-carboxamide]
